ChEMBL document CHEMBL1201862, “PubChem BioAssay data set” (2004)
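Where inhibition never reached the appropriate level, the endpoint shown equals the highest concentration tested. Otherwise, values were interpolated linearly from a five-concentration, 48-hour dose response in 96-well plates. Here, GI50 denotes the concentration required for 50% inhibition of growth.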 Activity calls are given as the source filed them. No stated cut-off is given here; in the data, active = GI50 up to about 1.1 µM and inactive = higher.

Assays:
Test in all cases: growth of human tumour cells (NCI), 48 h
SF-268 = tested on: SF-268
MDA-N = tested on: MDA-N
U-251 = tested on: U-251
SK-MEL-2 = tested on: SK-MEL-2
MCF7 = tested on: MCF7
SNB-75 = tested on: SNB-75
A498 = tested on: A498
SK-OV-3 = tested on: SK-OV-3
HOP-62 = tested on: HOP-62
MOLT-4 = tested on: MOLT-4
MDA-MB-435 = tested on: MDA-MB-435
OVCAR-8 = tested on: OVCAR-8
MDA-MB-231 = tested on: MDA-MB-231
SR = tested on: SR
NCI-H226 = tested on: NCI-H226
UACC-257 = tested on: UACC-257
NCI-H522 = tested on: NCI-H522
CAKI-1 = tested on: CAKI-1
SF-539 = tested on: SF-539

Measured: GI50

COc1ccc(/C=C2\NC(=S)N(CN3CCOCC3)C2=O)cc1
inactive: SF-268 > 100 µM | MDA-N > 100 µM | U-251 > 100 µM | SK-MEL-2 > 100 µM | MCF7 > 100 µM | SNB-75 > 100 µM | A498 26.1 µM | SK-OV-3 > 100 µM | HOP-62 > 100 µM | MOLT-4 > 100 µM | MDA-MB-435 > 100 µM | OVCAR-8 > 100 µM | MDA-MB-231 > 100 µM | SR > 100 µM | NCI-H226 > 100 µM | UACC-257 > 100 µM

CC[N+](C)(CC)CCC(O)(c1ccccc1)c1ccccc1
inactive: SF-268 > 100 µM | MDA-N > 100 µM | U-251 > 100 µM | SK-MEL-2 > 100 µM | MCF7 > 100 µM | SNB-75 > 100 µM | A498 > 100 µM | NCI-H522 > 100 µM | SK-OV-3 > 100 µM | HOP-62 > 100 µM | MOLT-4 > 100 µM | MDA-MB-435 > 100 µM | OVCAR-8 > 100 µM | MDA-MB-231 > 100 µM | SR > 100 µM | NCI-H226 > 100 µM | UACC-257 > 100 µM

CC(C)CC(NC(=O)C(CI)Cc1ccccc1)C(=O)Nc1ccccc1 (centres undefined)
inactive: MDA-N > 100 µM | U-251 > 100 µM | SK-MEL-2 > 100 µM | MCF7 > 100 µM | CAKI-1 > 100 µM | SNB-75 > 100 µM | A498 > 100 µM | NCI-H522 > 100 µM | SK-OV-3 > 100 µM | MOLT-4 > 100 µM | MDA-MB-435 > 100 µM | OVCAR-8 > 100 µM | MDA-MB-231 > 100 µM | SR 68.9 µM | UACC-257 > 100 µM | SF-539 > 100 µM

O=C(c1ccc(Cl)cc1)N1N=C(c2ccc(Cl)cc2)CC1(O)c1cc(F)c(Cl)cc1Cl (centres undefined)
inactive: SF-268 47.4 µM | MDA-N 13.6 µM | U-251 15.5 µM | SK-MEL-2 17 µM | MCF7 7.14 µM | CAKI-1 13.8 µM | SNB-75 10 µM | A498 13.6 µM | NCI-H522 12.9 µM | SK-OV-3 62.4 µM | HOP-62 32.1 µM | MOLT-4 9.25 µM | MDA-MB-435 16.7 µM | OVCAR-8 21.3 µM | MDA-MB-231 34.2 µM | NCI-H226 50.6 µM | UACC-257 25.7 µM | SF-539 69.3 µM

COCCOC(C)C(=O)C(O)S(=O)(=O)O (centres undefined)
inactive: SF-268 > 100 µM | MDA-N > 100 µM | U-251 > 100 µM | SK-MEL-2 > 100 µM | MCF7 > 100 µM | SNB-75 > 100 µM | A498 > 100 µM | NCI-H522 > 100 µM | SK-OV-3 > 100 µM | HOP-62 > 100 µM | MOLT-4 > 100 µM | MDA-MB-435 > 100 µM | OVCAR-8 > 100 µM | MDA-MB-231 > 100 µM | SR > 100 µM | NCI-H226 > 100 µM | UACC-257 > 100 µM | SF-539 > 100 µM

Cc1ccc(S(=O)(=O)Oc2cc(N)c3c(n2)CCC3)cc1
inactive: SF-268 > 100 µM | MDA-N > 100 µM | U-251 > 100 µM | SK-MEL-2 > 100 µM | MCF7 > 100 µM | CAKI-1 > 100 µM | SNB-75 > 100 µM | A498 69.2 µM | SK-OV-3 > 100 µM | HOP-62 > 100 µM | MOLT-4 33.7 µM | MDA-MB-435 > 100 µM | OVCAR-8 > 100 µM | MDA-MB-231 > 100 µM | NCI-H226 36.8 µM | UACC-257 46.2 µM | SF-539 > 100 µM

COC(=O)C1C/C(=C/N(C)C)C(=S)N1 (centres undefined)
inactive: SF-268 > 100 µM | MDA-N > 100 µM | U-251 > 100 µM | SK-MEL-2 > 100 µM | MCF7 > 100 µM | CAKI-1 > 100 µM | SNB-75 > 100 µM | A498 > 100 µM | NCI-H522 > 100 µM | SK-OV-3 > 100 µM | HOP-62 > 100 µM | MOLT-4 > 100 µM | MDA-MB-435 > 100 µM | OVCAR-8 > 100 µM | MDA-MB-231 > 100 µM | SR > 100 µM | UACC-257 > 100 µM

Nc1nc(SCC(=O)c2ccc(Br)cc2)c2nc[nH]c2n1
inactive: SF-268 23 µM | MDA-N 34.8 µM | U-251 44.4 µM | SK-MEL-2 32.1 µM | MCF7 56.4 µM | CAKI-1 26.2 µM | SNB-75 28 µM | A498 51.6 µM | NCI-H522 17.8 µM | SK-OV-3 34.5 µM | HOP-62 44.9 µM | MDA-MB-435 35.2 µM | OVCAR-8 28.8 µM | MDA-MB-231 52.1 µM | SR 17.9 µM | NCI-H226 27.1 µM | UACC-257 30.5 µM

O=S(=O)(O)C(c1ccccc1)C(O)c1ccccc1 (centres undefined)
inactive: SF-268 > 100 µM | MDA-N > 100 µM | U-251 > 100 µM | SK-MEL-2 > 100 µM | MCF7 > 100 µM | CAKI-1 > 100 µM | SNB-75 > 100 µM | A498 > 100 µM | NCI-H522 > 100 µM | SK-OV-3 > 100 µM | HOP-62 > 100 µM | MDA-MB-435 > 100 µM | OVCAR-8 > 100 µM | MDA-MB-231 > 100 µM | SR > 100 µM | NCI-H226 > 100 µM | UACC-257 46.5 µM

CCOc1nnnc2[nH]cnc12
inactive: SF-268 > 100 µM | MDA-N > 100 µM | U-251 > 100 µM | SK-MEL-2 > 100 µM | MCF7 > 100 µM | CAKI-1 > 100 µM | SNB-75 > 100 µM | A498 > 100 µM | NCI-H522 > 100 µM | SK-OV-3 > 100 µM | HOP-62 > 100 µM | MOLT-4 > 100 µM | MDA-MB-435 > 100 µM | OVCAR-8 > 100 µM | MDA-MB-231 > 100 µM | NCI-H226 > 100 µM | UACC-257 > 100 µM | SF-539 > 100 µM

C=CC(C)(C)c1cc([C@@H]2COc3cc(O)ccc3C2=O)c(O)c(OC)c1OC
inactive: SF-268 12.6 µM | MDA-N 7.6 µM | U-251 13.5 µM | SK-MEL-2 15.9 µM | MCF7 14.8 µM | SNB-75 4.63 µM | A498 16.9 µM | NCI-H522 4.25 µM | SK-OV-3 14.6 µM | MOLT-4 7.01 µM | MDA-MB-435 6.44 µM | OVCAR-8 17.3 µM | MDA-MB-231 13.5 µM | SR 8.18 µM | NCI-H226 16.5 µM | UACC-257 13 µM | SF-539 18.8 µM

CC1=NN(c2nc(N)nc(-c3sccc3N)n2)C(C)(C)C1
inactive: SF-268 > 100 µM | MDA-N 75.9 µM | U-251 > 100 µM | MCF7 78 µM | CAKI-1 > 100 µM | SNB-75 36.3 µM | A498 > 100 µM | NCI-H522 32.7 µM | SK-OV-3 > 100 µM | HOP-62 > 100 µM | MOLT-4 83.9 µM | MDA-MB-435 45 µM | OVCAR-8 62.5 µM | MDA-MB-231 73.1 µM | NCI-H226 33.1 µM | UACC-257 > 100 µM | SF-539 > 100 µM

COc1ccc2c(c1OC(C)=O)C1=CC(=O)CCC13CCNC3C2 (centres undefined)
inactive: SF-268 > 100 µM | MDA-N > 100 µM | U-251 > 100 µM | SK-MEL-2 > 100 µM | MCF7 > 100 µM | CAKI-1 > 100 µM | SNB-75 > 100 µM | NCI-H522 > 100 µM | SK-OV-3 > 100 µM | HOP-62 > 100 µM | MOLT-4 > 100 µM | MDA-MB-435 > 100 µM | OVCAR-8 > 100 µM | MDA-MB-231 > 100 µM | SR > 100 µM | NCI-H226 > 100 µM | UACC-257 > 100 µM

COc1ccc(NC(=O)/C(O)=C/C(=O)c2ccccc2)cc1
inactive: SF-268 > 10 µM | MDA-N > 10 µM | MCF7 > 10 µM | CAKI-1 > 10 µM | SNB-75 > 10 µM | SK-OV-3 > 10 µM | HOP-62 > 10 µM | MOLT-4 1.95 µM | MDA-MB-435 > 10 µM | OVCAR-8 > 10 µM | MDA-MB-231 > 10 µM | SR 1.74 µM | UACC-257 > 10 µM

COc1cc(Nc2nnc3n2S(=O)(=O)c2cc(C)c(Cl)cc2S3)cc(OC)c1
inactive: SF-268 11.5 µM | MDA-N 4.68 µM | U-251 10.9 µM | MCF7 13.6 µM | CAKI-1 8.55 µM | A498 19.1 µM | NCI-H522 2.61 µM | SK-OV-3 14.2 µM | HOP-62 11.9 µM | MOLT-4 4.29 µM | MDA-MB-435 4.28 µM | OVCAR-8 17.5 µM | MDA-MB-231 19.9 µM | NCI-H226 16.4 µM | UACC-257 16.6 µM | SF-539 2.12 µM

CCCCCCCCCCCCOP(=O)(O)OP(=O)(O)OCC1OC(n2ccc(N)nc2=O)CC1O (centres undefined)
inactive: SF-268 > 100 µM | MDA-N > 100 µM | U-251 > 100 µM | SK-MEL-2 > 100 µM | MCF7 > 100 µM | CAKI-1 > 100 µM | SNB-75 95.9 µM | A498 > 100 µM | NCI-H522 > 100 µM | SK-OV-3 > 100 µM | HOP-62 > 100 µM | MOLT-4 > 100 µM | MDA-MB-435 > 100 µM | OVCAR-8 > 100 µM | MDA-MB-231 > 100 µM | NCI-H226 > 100 µM | UACC-257 > 100 µM | SF-539 > 100 µM
